We go through 14 molecules from patent US8501946B2 (Glaxo Group Limited, priority 2009, dated 2013).

The target of the assay is T1, human recombinant P2X7 receptors (Homo sapiens, UniProt Q99572).
T1 construct: expressed in transfected cells
T1 sequence (Q99572 1-595): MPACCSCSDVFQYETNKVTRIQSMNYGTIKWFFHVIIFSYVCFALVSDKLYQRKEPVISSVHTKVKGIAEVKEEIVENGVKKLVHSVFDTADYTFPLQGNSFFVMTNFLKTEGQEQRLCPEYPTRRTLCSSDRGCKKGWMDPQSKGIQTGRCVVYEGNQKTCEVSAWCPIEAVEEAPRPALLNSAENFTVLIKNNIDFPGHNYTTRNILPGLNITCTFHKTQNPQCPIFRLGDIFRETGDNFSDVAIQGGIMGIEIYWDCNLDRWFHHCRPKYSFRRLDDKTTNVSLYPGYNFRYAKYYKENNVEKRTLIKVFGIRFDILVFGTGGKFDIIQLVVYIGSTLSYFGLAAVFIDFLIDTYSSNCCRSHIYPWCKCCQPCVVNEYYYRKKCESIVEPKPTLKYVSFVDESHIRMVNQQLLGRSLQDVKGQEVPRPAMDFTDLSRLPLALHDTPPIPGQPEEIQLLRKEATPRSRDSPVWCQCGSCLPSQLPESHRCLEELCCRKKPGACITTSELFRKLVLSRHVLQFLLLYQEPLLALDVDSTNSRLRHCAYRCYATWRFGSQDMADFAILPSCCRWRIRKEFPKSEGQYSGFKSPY
Nature of the assay: Ethidium Accumulation Assay 1 (HEK293 cells, ATP-induced ethidium uptake). Format: cell-based. As to conditions: HEK293 cells expressing human P2X7; 1 mM ATP; sometimes mean of more than one measurement; read-out: Assay 1 (antagonist pIC50 for blocking ATP responses) (converted). Here is the method:
Eithidium Accumulation Assay 1
Studies were performed using NaCl assay buffer of the following composition: 140 mM NaCl, 10 mM HEPES [4-(2-hydroxyethyl)-1-piperazine-1-ethanesulfonic acid], 5 mM N-methyl-D-glucamine, 5.6 mM KCl, 10 mM D-glucose, 0.5 mM CaCl2 (pH 7.4).
Human Embryonic Kidney (HEK) 293 cells, stably expressing human recombinant P2X7 receptors, were grown in poly-D-lysine pretreated 96 well plates for 18-24 hours.
The cells were washed twice with 350 μl of the assay buffer, before addition of 50 μl of the assay buffer containing the putative P2X7 receptor antagonist compound. (A small amount of dimethyl sulfoxide, for initially dissolving the compound, is optionally used and present in this 50 μl test compound sample.) The cells were then incubated at room temperature (19-21° C.) for 30 min before addition of ATP and ethidium (100 μM final assay concentration). The ATP concentration was chosen to be close to the EC80 for the receptor type and was 1 mM for studies on the human P2X7 receptor. Incubations were continued for 8 or 16 min and were terminated by addition of 25 μl of 1.3M sucrose containing 4 mM of the P2X7 receptor antagonist Reactive Black 5 (Aldrich). […] Antagonist pIC50 values for blocking ATP responses were determined using iterative curve fitting techniques.

On to `COc1nnc2n1CCN(C(=O)c1cccc(C(F)(F)F)c1Cl)C2` [Example 17, 7-{[2-Chloro-3-(trifluoromethyl)phenyl]carbonyl}-3-(methyloxy)-5,6,7,8-tetrahydro[1,2,4]triazolo[4,3-a]pyrazine], for which the IC50 is less than 100 nM.
Turning to `CCCc1nnc2n1CCN(C(=O)c1cccc(C(F)(F)F)c1Cl)C2` [Example 134, 7-{[2-chloro-3-(trifluoromethyl)phenyl]carbonyl}-3-propyl-5,6,7,8-tetrahydro[1,2,4]triazolo[4,3-a]pyrazine], the IC50 is less than 100 nM.
With `O=C(c1cccc(C(F)(F)F)c1Cl)N1CCn2c(nnc2-c2ncccn2)C1` [Example 50, 7-{[2-chloro-3-(trifluoromethyl)phenyl]carbonyl}-3-(2-pyrimidinyl)-5,6,7,8-tetrahydro[1,2,4]triazolo [4,3-a]pyrazine], the IC50 was less than 10 nM.
As for `O=C(c1ccccc1Cl)N1CCn2c(nnc2-c2ncccc2F)C1` [Example 121, 7-[(2-chlorophenyl)carbonyl]-3-(3-fluoro-2-pyridinyl)-5,6,7,8-tetrahydro[1,2,4]triazolo[4,3-a]pyrazine], the IC50 is less than 100 nM.
Then `O=C(c1ccc(F)cc1Cl)N1CCn2c(nnc2-c2ccccc2O)C1` [Example 128, 2-{7-[(2-chloro-4-fluorophenyl)carbonyl]-5,6,7,8-tetrahydro[1,2,4]triazolo[4,3-a]pyrazin-3-yl}phenol], with less than 501 nM; and `O=C(c1ccccc1Cl)N1CCn2c(nnc2-c2cscn2)C1` [Example 103, 7-[(2-chlorophenyl)carbonyl]-3-(1,3-thiazol-4-yl)-5,6,7,8-tetrahydro[1,2,4]triazolo [4,3-a]pyrazine], with less than 10 nM.
Consider `O=C(c1cccc(C(F)(F)F)c1Cl)N1CCn2c(nnc2-c2cccc(F)n2)C1` [Example 53, 7-{[2-chloro-3-(trifluoromethyl)phenyl]carbonyl}-3-(6-fluoro-2-pyridinyl)-5,6,7,8-tetrahydro[1,2,4]triazolo [4,3-a]pyrazine], for which the IC50 was less than 10 nM.
Take `O=C(c1ccc(F)cc1Cl)N1CCn2c(nnc2-c2cccc(Cl)c2Cl)C1` [Example 130, 7-[(2-chloro-4-fluorophenyl)carbonyl]-3-(2,3-dichlorophenyl)-5,6,7,8-tetrahydro[1,2,4]triazolo[4,3-a]pyrazine]: the IC50 is less than 100 nM.
Consider `O=C(c1cccc(C(F)(F)F)c1Cl)N1CCn2c(nnc2-c2ccccc2)C1` [Example 13, 7-{[2-Chloro-3-(trifluoromethyl)phenyl]carbonyl}-3-phenyl-5,6,7,8-tetrahydro[1,2,4]triazolo[4,3-a]pyrazine], for which the IC50 is less than 10 nM.
With `O=C(c1cccc(C(F)(F)F)c1Cl)N1CCn2c(nnc2-c2cccnc2)C1` [Example 16, 7-{[2-Chloro-3-(trifluoromethyl)phenyl]carbonyl}-3-(3-pyridinyl)-5,6,7,8-tetrahydro[1,2,4]triazolo[4,3-a]pyrazine], the IC50 was less than 10 nM.
Consider `O=C(c1ccc(F)cc1Cl)N1CCn2c(nnc2-c2ncccn2)C1` [Example 47, 7-[(2-chloro-4-fluorophenyl)carbonyl]-3-(2-pyrimidinyl)-5,6,7,8-tetrahydro[1,2,4]triazolo [4,3-a]pyrazine], for which the IC50 was less than 10 nM.
For `O=C(c1ccc(Cl)cc1Cl)N1CCn2c(nnc2-c2ccncn2)C1` [Example 102, 7-[(2,4-dichlorophenyl)carbonyl]-3-(4-pyrimidinyl)-5,6,7,8-tetrahydro[1,2,4]triazolo [4,3-a]pyrazine], the IC50 was less than 100 nM.
Regarding `O=C(c1ccc(F)cc1Cl)N1CCn2c(nnc2-c2cscn2)C1` [Example 90, 7-[(2-chloro-4-fluorophenyl)carbonyl]-3-(1,3-thiazol-4-yl)-5,6,7,8-tetrahydro[1,2,4]triazolo [4,3-a]pyrazine], the IC50 is less than 10 nM.
Take `Cc1cc(-c2nnc3n2CCN(C(=O)c2cccc(C(F)(F)F)c2Cl)C3)no1` [Example 36, 7-{[2-chloro-3-(trifluoromethyl)phenyl]carbonyl}-3-(5-methyl-3-isoxazolyl)-5,6,7,8-tetrahydro[1,2,4]triazolo [4,3-a]pyrazine]: the IC50 is less than 100 nM.
